From patent publication US5306824A, “Biotinylated isocoumarins” (Georgia Tech Research Corporation, priority 1992, dated 1994)

What was measured:
[1] = molecular target: T1, human leukocyte elastase (HLE) (Homo sapiens, UniProt P08246); assay: Inactivation of human leukocyte elastase by biotin-isocoumarins (incubation method); type: biochemical; conditions: inhibitor 1.6-210 μM; pH 7.5, 25° C.; read-out: kobs/[I] HLE
T1 sequence (P08246 30-267): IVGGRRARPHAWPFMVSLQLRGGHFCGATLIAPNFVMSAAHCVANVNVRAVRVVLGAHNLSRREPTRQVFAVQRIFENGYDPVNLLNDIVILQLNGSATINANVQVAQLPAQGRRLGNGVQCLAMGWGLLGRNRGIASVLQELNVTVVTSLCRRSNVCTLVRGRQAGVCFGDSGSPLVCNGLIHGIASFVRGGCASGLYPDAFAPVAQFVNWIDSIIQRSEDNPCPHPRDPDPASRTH
Method: (§1) Inactivation rates of serine proteases by substituted isocoumarins were measured by the incubation method. An aliquot of inhibitor (25 or 50 μl) in Me2 SO was added to a buffered enzyme solution (0.01-2.3 μM) to initiate the inactivation. Aliquots (50-100 μl) were withdrawn at various intervals and the residual enzymatic activity was measured. Me2 SO concentration in the reaction mixture was 8-12% (v/v). 0.1M Hepes, 0.5M NaCl, pH 7.5 buffer was utilized for the assays of chymotrypsin, cathepsin G (cat G), porcine pancreatic elastase (PPE), human leukocyte elastase (HLE) and rat granule serine proteases. 0.1M Hepes, 0.01M CaCl2, pH 7.5 buffer was utilized for the assays of trypsin and human recombinant (HR) granzyme A. The inhibitor concentrations are shown in the Tables I and II. Peptide nitroanilides with appropriate sequence were used as substrates for various serine proteases. All peptide 4-nitroanilide hydrolysis was measured at 410 nm (ε410 =8800M^-1 cm^-1; Erlanger et al., Arch. Biochem. Biophys. 95, pp 271-278 (1961), incorporated herein by reference). Peptide thioester hydrolysis rates were measured with assay mixtures containing 4,4'-dithiodipyridine (ε324 =19800M^-1 cm^-1; Grasetti & Murray, Arch. Biochem. Biophys. 119, pp. 41-49 (1967), incorporated herein by reference). First order inactivation rate constant (kobs) were obtained from plots of ln (vt /vo) vs time, and the correlation coefficients were greater than 0.98.
(§2) ^a Inhibition was measured in 0.1 M Hepes, 0.5 M NaCl (or 0.01 M
(§3) CaCl2), pH 7.5 buffer, 5-10% Me2 SO and at 25° C.
G. MeOSuc-Ala-Ala-Pro-Val-NA (0.24-0.47 mM) and SucAla-Ala-Ala-NA
(0.29-0.48 mM) were used as the substrate for HLE and PPE respectively.
^d Inhibitor concentrations were 1.6-210 μM.

chymotrypsin [2] = molecular target: T2, chymotrypsin (Bos taurus, UniProt P00766); assay: Inactivation of chymotrypsin by biotin-isocoumarins (incubation method); type: biochemical, bovine; conditions: 0.1 M Hepes, 0.5 M NaCl, pH 7.5, 5-10% Me2SO, 25° C., two values given for some compounds
Method: as §1, §2, §3
SucVal-Pro-NA (0.48 mM) was used as the substrate for chymotrypsin and ca
^b Inhibitor concentrations were 20-400 μM.

trypsin = molecular target: T3, trypsin (Bos taurus, UniProt P00760); assay: Inactivation of trypsin by biotin-isocoumarins (incubation method); type: biochemical; conditions: inhibitor 41-42 μM; 0.1 M Hepes, 0.01 M CaCl2, pH 7.5, 25° C.; read-out: kobs/[I] Trypsin
T3 sequence (P00760 24-246): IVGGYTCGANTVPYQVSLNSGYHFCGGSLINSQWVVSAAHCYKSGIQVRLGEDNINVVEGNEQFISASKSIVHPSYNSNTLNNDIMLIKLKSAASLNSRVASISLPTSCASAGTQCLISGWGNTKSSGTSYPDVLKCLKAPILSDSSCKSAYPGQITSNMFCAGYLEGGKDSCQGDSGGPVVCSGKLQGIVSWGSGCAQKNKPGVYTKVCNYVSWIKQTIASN
Method: as §1, §2, §3
ZGlu-Phe-Arg-NA (0.032 mM) was a substrate for trypsin. ZArg-SBzl (0.120
^f Inhibitor concentrations were 41-42 μM.

Rat Granule Chymase [3] = assay: Inhibition of rat granule chymase; type: biochemical; conditions: inhibition not time dependent, pH 7.5, 10% Me2SO, 25° C.
Method: as §1, with “First order inactivation rate constant (kobs) were obtained from plots of ln (vt /vo) vs time, and the correlation coefficients were greater than 0.98.” left out
(§4) ^a Inhibition was measured in 0.1 M Hepes, 0.5 M NaCl, pH 7.5 buffer, […]

Rat Granule Tryptase = assay: Inhibition of rat granule tryptase; type: biochemical; conditions: [I] 0.078 mM or 0.2 mM as per table line; pH 7.5, 10% Me2SO, 25° C.
Method: as §1, with “First order inactivation rate constant (kobs) were obtained from plots of ln (vt /vo) vs time, and the correlation coefficients were greater than 0.98.” left out
as §4

chymotrypsin [4] = molecular target: T2, chymotrypsin; assay: Reactivation of inhibited chymotrypsin in buffer and with NH2OH; type: biochemical, bovine; conditions: for % of Enzyme Activity Reactivated, Chymotrypsin +NH2OH: 0.4 M NH2OH, immediately after addition; for % of Enzyme Activity Reactivated, Chymotrypsin in buffer: after removal of excess inhibitor, 25° C. for two days
Method: (§5) ^a Inhibition was performed at 0.1 M Hepes, 0.5 M NaCl, pH 7.5 buffer
(§6) 10% Me2 SO and 25° C. Reactivation was carried out in the
presence of 0.4 M of NH2 OH, and occurred immediately after the
^b Enzyme activity was measured after removal of excess inhibitor by
centrifugation at 0° C. with centricon10 microconcentrator and
staying at 25° C. for two days.

Rat Granule Chymase [5] = assay: Reactivation of inhibited rat granule chymase with NH2OH; type: biochemical; conditions: 0.4 M NH2OH, immediately after addition
Method: as §5, §6
presence of 0.4 M of NH2 OH, and occurred immediately after the […]

chymotrypsin [6] = molecular target: T2, chymotrypsin; assay: Effect of streptavidin and avidin on reactivation of inhibited chymotrypsin; type: biochemical, bovine; conditions: monitored for two days; for % of Regained Enzyme Activity, Chymotrypsin, +Streptavidin: 3-4 units streptavidin, 2880 min; for % of Regained Enzyme Activity, Chymotrypsin, Buffer: pH 7.5, 8% Me2SO, 25° C.
Method: ^a Percentage of regained enzymatic activity was measured in 0.1 M
Hepes, 0.5 M NaCl, pH 7.5 buffer, 8% Me2 SO and at 25° C.
Excess inhibitor was removed from enzymeinhibitor mixture by
centrifugation twice with Amicon microconcentrator10. Then 3-4 units of
avidin or strepavidin was added and enzymatic activity was monitored for […]

kinact/KI [1] [M⁻¹ s⁻¹]	kobs/[I] Chymotrypsin (chymotrypsin [2]; inhibitor 20-400 μM) [M⁻¹ s⁻¹]	kinact/KI (chymotrypsin [2]; pH 7.5, inhibitor 20-400 μM, read-out: kobs/[I] Chymotrypsin) [M⁻¹ s⁻¹]	kinact/KI (trypsin) [M⁻¹ s⁻¹]	Rat Granule Chymase % of inhibition (Rat Granule Chymase [3]; [I] 0.2 mM)	Rat Granule Tryptase kobs/[I] (Rat Granule Tryptase) [M⁻¹ s⁻¹]	% of Enzyme Activity Reactivated, Chymotrypsin +NH2OH (chymotrypsin [4]) [%]	% of Enzyme Activity Reactivated, Chymotrypsin in buffer (chymotrypsin [4]) [%]	% of Enzyme Activity Reactivated, Rat granule chymase +NH2OH (Rat Granule Chymase [5])	% of Regained Enzyme Activity, Chymotrypsin, +Streptavidin (chymotrypsin [6]) [%]	% of Regained Enzyme Activity, Chymotrypsin, Buffer (chymotrypsin [6]) [%]	Rat Granule Chymase % of inhibition (Rat Granule Chymase [3]; [I] 0.078 mM)	Compound
230												O=C(CCCCCNC(=O)CCCCC1SCC2NC(=O)NC21)NCCCCCC(=O)Nc1ccc2c(Cl)c(OCCc3ccccc3)oc(=O)c2c1 (stereo not drawn) [Compound 7, 7-[6-(6-biotinylaminocaproyl)aminocaproyl]-amino-4-chloro-3-(2-phenylethoxy)-isocoumarin]
740	165	330	1.1	10-20%	2 to 3	100	15	100%	27	10		O=C(CCCC[C@@H]1SC[C@@H]2NC(=O)N[C@@H]21)Nc1ccc2c(Cl)c(OCCc3ccccc3)oc(=O)c2c1 [Compound 1, 7-biotinylamino-4-chloro-3-(2-phenylethoxy)isocoumarin]
670			1		6 to 12	100	10	30-50%	39	15	30-50%	O=C(CCCC[C@@H]1SC[C@@H]2NC(=O)N[C@@H]21)NCCCCCC(=O)Nc1ccc2c(Cl)c(OCCc3ccccc3)oc(=O)c2c1 [Compound 3, 7-(6-biotinylaminocaproyl)amino-4-chloro-3-(2-phenylethoxy)isocoumarin]
